From US8288375B2, “Fungicidal bicyclic pyrazoles” (E.I. du Pont de Nemours and Company, priority 2007, dated 2012)
Marks after values point to notes of the source that are not given here.

Columns and labels:
Assay type in all cases: in vivo
[1] = test system: Erysiphe graminis f. sp. tritici; test: Test A: wheat powdery mildew, test suspension sprayed on wheat seedlings, disease rating; conditions: 200 ppm test suspension, 100 = 100% disease control, 0 = no control
Fusarium graminearum = test: whole plant or invertebrate
Septoria nodorum = test: Test D: wheat glume blotch, test suspension sprayed on wheat seedlings, disease rating; conditions: 200 ppm test suspension
Septoria tritici = test: Test E: wheat leaf blotch, test suspension sprayed on wheat seedlings, disease rating;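 note: 200 ppm unless marked * meaning 40 ppm or ** meaning 10 ppm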
[2] = test system: Colletotrichum orbiculare; test: Test F: cucumber Colletotrichum anthracnose, test suspension sprayed on cucumber seedlings, disease rating; conditions: for Test F disease control rating: 200 ppm test suspension
Alternaria solani = test: Test G: tomato early blight, test suspension sprayed on seedlings, disease rating;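 note: 200 ppm unless marked * meaning 40 ppm or ** meaning 10 ppm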
Botrytis cinerea = test: Test H: tomato Botrytis, test suspension sprayed on tomato seedlings, disease rating; conditions: 200 ppm test suspension
Rhizoctonia oryzae = test: Test I: turf brown patch, test suspension sprayed on creeping bent grass seedlings, disease rating; conditions: 200 ppm test suspension
Phytophthora infestans = test: whole plant or invertebrate
Pythium aphanidermatum = test: Test L: bluegrass pythium blight, test suspension sprayed on bluegrass seedlings, disease rating;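 note: 200 ppm unless marked * meaning 40 ppm or ** meaning 10 ppm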
[3] = test system: Puccinia recondite f sp. tritici; test: Test B: wheat leaf rust, test suspension sprayed on wheat seedlings, disease rating;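 note: 200 ppm unless marked * meaning 40 ppm or ** meaning 10 ppm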

| SMILES | Test A disease control rating [1] [%] | Test C disease control rating (Fusarium graminearum; 40 ppm test suspension (*)) | Test D disease control rating (Septoria nodorum) [%] | Test E disease control rating (Septoria tritici; 40 ppm test suspension (*)) | Test G disease control rating (Alternaria solani; 40 ppm test suspension (*)) | Test H disease control rating (Botrytis cinerea) [%] | Test I disease control rating (Rhizoctonia oryzae) [%] | Test J disease control rating (Phytophthora infestans; 40 ppm test suspension (*)) | Test L disease control rating (Pythium aphanidermatum; 40 ppm test suspension (*)) | Test B disease control rating ([3]; 200 ppm test suspension) [%] | Test C disease control rating (Fusarium graminearum; 200 ppm test suspension) [%] | Test E disease control rating (Septoria tritici; 200 ppm test suspension) [%] | also measured |
| --- | --- | --- | --- | --- | --- | --- | --- | --- | --- | --- | --- | --- | --- |
| Fc1ccc(-c2nn3c(c2-c2ccnc(NCc4ccco4)n2)CCCC3)cc1 [compound 78] | 58 | 99* % | 69 | 60* % | 0* % | 0 | 0 | 17* % | 0* % | – | – | – | Test F disease control rating [2]: 0% |
| CCCNc1nccc(-c2c(-c3ccccc3)nn3c2CCCC3)n1 [compound 179] | 75 | – | 99 | – | – | – | 89 | – | – | 100 | 100 | 100 | – |
| CNc1nccc(-c2c(-c3ccccc3)nn3c2CCCC3)n1 [compound 142] | 95 | – | 98 | – | – | 53 | – | – | – | 100 | 97 | 100 | Test G disease control rating (Alternaria solani; 200 ppm test suspension): 0% |
| CC(CN(C)C)Nc1nccc(-c2c(-c3ccc(F)cc3)nn3c2CCCC3)n1 (stereo not shown) [compound 77] | 82 | 92* % | 49 | 0* % | 0* % | 29 | 0 | 40* % | 0* % | – | – | – | Test F disease control rating [2]: 0% |
| CNc1nccc(-c2c(-c3cccc(C)c3)nn3c2CCCC3)n1 [compound 187] | 79 | – | 92 | – | – | 92 | – | – | – | 99 | – | 99 | – |
| Fc1ccc(-c2nn3c(c2-c2ccnc(NCC4CCOCC4)n2)CCCC3)cc1 [compound 80] | 82 | 98* % | 82 | 93* % | 68* % | 44 | 0 | 33* % | 0* % | – | – | – | Test F disease control rating [2]: 0% |
| CCCNc1nccc(-c2c(-c3cccc(C)c3)nn3c2CCCC3)n1 [compound 185] | 74 | – | 99 | – | – | 99 | – | – | – | 97 | – | 97 | Test G disease control rating (Alternaria solani; 200 ppm test suspension): 95% |
| c1ccc(-c2nn3c(c2-c2ccnc(NC4CC4)n2)CCCC3)cc1 [Compound 27, N-cyclopropyl-4-(4,5,6,7-tetrahydro-2-phenylpyrazolo[1,5-a]pyridin-3-yl)-2-pyrimidinamine] | – | – | – | – | – | – | – | – | – | – | – | – | pest or weed control at 200 ppm ([1]; Blumeria graminis, 192 h): 96%; pest or weed control at 40 ppm ([3]; Puccinia, 192 h, 40 ppm test suspension (*)): 95%; pest or weed control at 40 ppm (Fusarium graminearum; Fusarium graminearum, in Triticum aestivum, 192 h, read-out: Test C disease control rating): 99%; pest or weed control at 200 ppm (Septoria nodorum; Parastagonospora nodorum, 216 h): 98%; pest or weed control at 200 ppm (Septoria tritici; Zymoseptoria tritici, 504 h, 200 ppm test suspension): 97%; pest or weed control at 10 ppm ([2]; Colletotrichum orbiculare, 144 h, 10 ppm test suspension (**)): 66%; pest or weed control at 10 ppm (Alternaria solani; Alternaria solani, 168 h, 10 ppm test suspension (**)): 95%; pest or weed control at 200 ppm (Phytophthora infestans; Phytophthora infestans, in Solanum lycopersicum, 120 h, read-out: Test J disease control rating): 97%; pest or weed control at 200 ppm (Pythium aphanidermatum; Pythium aphanidermatum, 120 h, 200 ppm test suspension): 98% |
| c1cc(-c2c(-c3ccsc3)nn3c2CCCC3)nc(NC2CC2)n1 [compound 180] | 79 | – | 98 | – | – | 96 | – | – | – | 99 | 96 | 100 | – |
| COc1cc(Nc2nccc(-c3c(-c4ccccc4)nn4c3CCCC4)n2)ccc1F [compound 182] | 92 | – | 97 | – | – | 81 | – | – | – | 77 | – | 100 | – |
| CCNc1nccc(-c2c(-c3ccccc3)nn3c2CCCC3)n1 [compound 143] | 96 | – | 100 | – | – | – | 86 | – | – | 100 | 99 | 100 | – |
| CCCNc1nccc(-c2c(-c3ccccc3)nn3c2COCC3)n1 [compound 184] | 61 | – | 90 | – | – | 80 | – | – | – | 99 | 99 | 100 | Test G disease control rating (Alternaria solani; 200 ppm test suspension): 98% |
| Cc1cccc(-c2nn3c(c2-c2ccnc(NC4CC4)n2)CCCC3)c1 [compound 181] | 97 | – | 100 | – | – | 94 | – | – | – | 100 | 100 | 100 | Test G disease control rating (Alternaria solani; 200 ppm test suspension): 99% |
| Cc1ccc(CNc2nccc(-c3c(-c4ccc(F)cc4)nn4c3CCCC4)n2)o1 [compound 79] | 76 | 99* % | 69 | 93* % | 0* % | 0 | 0 | 0* % | 0* % | – | – | – | Test F disease control rating [2]: 0% |
| CC(CN1C(=O)c2ccccc2C1=O)Nc1nccc(-c2c(-c3ccc(F)cc3)nn3c2CCCC3)n1 (stereo not shown) [compound 71] | 0 | 0* % | 64 | 33* % | 0* % | 0 | – | 9* % | 97* % | – | – | – | Test B disease control rating ([3]; 40 ppm test suspension (*)): 0* %; Test F disease control rating [2]: 0% |
| CCNc1nccc(-c2c(-c3ccccc3)nn3c2COCC3)n1 [compound 183] | – | – | 97 | – | – | 81 | – | – | – | 100 | 99 | 100 | – |
| CC(C)Nc1nccc(-c2c(-c3ccc(F)cc3)nn3c2COCC3)n1.Cl [compound 128] | 0 | 99* % | 99 | 94* % | 99* % | 89 | – | 100* % | 100* % | – | – | – | Test B disease control rating ([3]; 40 ppm test suspension (*)): 96* %; Test F disease control rating [2]: 99% |
| Fc1ccc(-c2nn3c(c2-c2ccnc(NC4CCOCC4)n2)COCC3)cc1 [compound 129] | 0 | 100* % | 99 | 81* % | 95* % | 84 | 53 | 95* % | 100* % | – | – | – | Test B disease control rating ([3]; 40 ppm test suspension (*)): 98* % |
| CC(=O)N1CCCc2c(-c3ccnc(NC4CCOCC4)n3)c(-c3ccc(F)cc3)nn21 [Compound 139] | 73 | 95* % | 99 | 29* % | 99* % | 0 | 40 | 93* % | 100* % | – | – | – | Test B disease control rating ([3]; 40 ppm test suspension (*)): 90* % |
| CCNc1nccc(-c2c(-c3cccc(C)c3)nn3c2CCCC3)n1 [compound 186] | 79 | – | 99 | – | – | 99 | – | – | – | 99 | – | 95 | Test G disease control rating (Alternaria solani; 200 ppm test suspension): 99% |
| OCCCNc1nccc(-c2c(-c3ccc(F)cc3)nn3c2CCCC3)n1 [compound 37] | 70 | – | 0 | – | – | – | – | – | – | 86 | 96 | 68 | Test J disease control rating (Phytophthora infestans; 200 ppm test suspension): 95%; Test L disease control rating (Pythium aphanidermatum; 200 ppm test suspension): 93% |
| Fc1ccc(Nc2nccc(-c3c(-c4ccc(F)cc4)nn4c3CCCC4)n2)cc1 [compound 40] | 0 | – | 99 | – | – | – | – | – | – | 85 | 84 | 98 | Test J disease control rating (Phytophthora infestans; 200 ppm test suspension): 0%; Test L disease control rating (Pythium aphanidermatum; 200 ppm test suspension): 0% |
